Counter-ions that a name gives are not always drawn. Like-named read-outs stand apart in the source and are kept apart here. Peptide text beside a SMILES is read from it.
Tests used:
[1] = system: NCI-H292 lung cancer cells; experiment: FDA drug screening, complete media vs cholesterol-free media with simvastatin (TABLE 2); format: cell-based, human
[2] = system: NCI-H292 lung cancer cells; experiment: FDA drug screening, complete media vs cholesterol-free media without statin (TABLE 1); format: cell-based, human
[3] = NCI-H292 cells, cholesterol-free media with simvastatin 0.04 μM, cell growth value in FDA drug screen
[4] = NCI-H292 cells, complete media, cell growth value in FDA drug screen
[5] = complete media minus cholesterol-free media + simvastatin, >0 enhanced anti-cancer activity, about 0 neutral, <0 antagonist
[6] = Complete minus Cholesterol-free, greater than 0 enhanced anti-cancer activity, about 0 neutral, below 0 antagonists
[7] = NCI-H292 cells in cholesterol-free media without statin
[8] = NCI-H292 cells in complete media
[9] = NCI-H292 cells, drug in cholesterol-free media with simvastatin 0.04 μM
[10] = NCI-H292 cells, drug in complete media
[11] = complete media vs cholesterol-free media + simvastatin (0.04 μM), >0 enhanced anti-cancer activity, about 0 neutral, <0 antagonist
[12] = Complete minus Cholesterol-free, >0 enhanced anti-cancer activity, about 0 neutral, <0 antagonist
[13] = NCI-H292 cells, cholesterol-free media without statin
[14] = NCI-H292 cells, cholesterol-free media without statin, FDA drug library screen
[15] = NCI-H292 cells, complete media, FDA drug library screen
[16] = Complete minus Cholesterol-free, greater than 0 enhanced anti-cancer activity, about 0 neutral, below 0 antagonist
[17] = NCI-H292 cells, FDA drug library screen, cholesterol-free media without statin
[18] = NCI-H292 cells, FDA drug library screen, complete media
[19] = NCI-H292 cells, FDA drug library screen, cholesterol-free media with simvastatin 0.04 μM
[20] = complete vs cholesterol-free media, greater than 0 enhanced anti-cancer activity, about 0 neutral, below 0 antagonists
[21] = NCI-H292 cells, cholesterol-free media with simvastatin 0.04 μM, FDA drug library screen (TABLE 2)
[22] = NCI-H292 cells, complete media, FDA drug library screen (TABLE 2)
[23] = complete media minus cholesterol-free media + simvastatin (0.04 μM), >0 enhanced anti-cancer activity, about 0 neutral, <0 antagonist
[24] = complete vs cholesterol-free media, >0 enhanced anti-cancer activity, about 0 neutral, <0 antagonist
[25] = complete media vs cholesterol-free media + simvastatin (0.04 μM), […]

Row | Compound | Difference [1, 5] | Cholesterol-free media + simvastatin (0.04 μM) [1, 9] | Complete Media [1, 10] | Difference [1, 11] | Difference [2, 12] | Complete ([2]; NCI-H292 cells, complete media) | Cholesterol-free [2, 14] | Complete [2, 15] | also measured
1 | OC[C@H]1O[C@@H](c2ccc(F)c(Cc3cc4ccccc4s3)c2)[C@H](O)[C@@H](O)[C@@H]1O [Ipragliflozin] | 0.07 |  |  |  |  |  |  |  | Cholesterol-free media + simvastatin (0.04 μM) [1, 3]: 0.8889; Complete Media [1, 4]: 0.9547; Difference [2, 6]: −0.87; Cholesterol-free [2, 7]: 1.769; Complete [2, 8]: 0.8999
2 | Nc1nc(N)nc(-c2cc(Cl)ccc2Cl)n1 [Irsogladine] |  | 1.185 | 0.995 | −0.19 | −0.28 | 0.9941 |  |  | Cholesterol-free [2, 13]: 1.27
3 | Tedizolid (phosphate) | 0.04 |  |  |  | −0.01 |  | 0.8406 | 0.8345 | Cholesterol-free media + simvastatin (0.04 μM) [1, 3]: 0.7735; Complete Media [1, 4]: 0.8096
4 | COc1nccnc1NS(=O)(=O)c1ccc(N)cc1 [Sulfalene] |  | 1.16 | 0.9534 | −0.21 | −0.03 |  | 1.1 | 1.067 | 
5 | C=CC(=O)Nc1cc(Nc2nccc(-c3cn(C)c4ccccc34)n2)c(OC)cc1N(C)CCN(C)C [Osimertinib] | 0.05 |  |  |  |  |  |  |  | Cholesterol-free media + simvastatin (0.04 μM) [1, 3]: 0.2666; Complete Media [1, 4]: 0.3123; Difference [2, 16]: −0.14; Cholesterol-free [2, 17]: 0.477; Complete [2, 18]: 0.3332
6 | C[C@H]1[C@H](NC(=O)/C(=N\OC(C)(C)C(=O)O)c2csc(N)n2)C(=O)N1S(=O)(=O)O [Aztreonam] |  | 1.706 | 1.446 | −0.26 | −0.20 | 0.892 |  |  | Cholesterol-free [2, 13]: 1.093
7 | CC(=O)O[C@]1(C(C)=O)CC[C@H]2[C@@H]3C[C@H](C)C4=CC(=O)CC[C@]4(C)[C@H]3CC[C@@]21C [Medroxyprogesterone acetate] |  |  |  | −0.07 |  | 0.6058 |  |  | Cholesterol-free media + simvastatin (0.04 μM) [1, 19]: 1.001; Complete Media [1, 18]: 0.9291; Cholesterol-free [2, 13]: 1.058; Difference [2, 20]: −0.45
8 | CCS(=O)(=O)CCn1c([N+](=O)[O-])cnc1C [Tinidazole] |  | 0.8398 | 0.6611 | −0.18 |  |  |  |  | Difference [2, 16]: −0.13; Cholesterol-free [2, 17]: 1.121; Complete [2, 18]: 0.9876
9 | C=C[C@]1(C)C[C@@H](OC(=O)CS[C@@H]2C[C@H]3CC[C@@H](C2)N3C)[C@]2(C)[C@H](C)CC[C@]3(CCC(=O)[C@H]32)[C@@H](C)[C@@H]1O [Retapamulin] |  |  |  |  |  |  |  |  | Cholesterol-free media + simvastatin (0.04 μM) [1, 21]: 1.667; Complete Media [1, 22]: 1.638; Difference [1, 23]: −0.03; Difference [2, 16]: −0.18; Cholesterol-free [2, 17]: 1.002; Complete [2, 18]: 0.8221
10 | CCCCOc1cc(C(=O)OCCN(CC)CC)ccc1N [Oxybuprocaine hydrochloride] | 0.56 |  |  |  |  |  | 0.7998 | 0.9021 | Cholesterol-free media + simvastatin (0.04 μM) [1, 19]: 0.4662; Complete Media [1, 18]: 1.022; Difference [2, 24]: 0.10
11 | COc1cc([C@@H]2c3cc4c(cc3[C@@H](O[C@@H]3O[C@@H]5CO[C@@H](c6cccs6)O[C@H]5[C@H](O)[C@H]3O)[C@H]3COC(=O)[C@H]23)OCO4)cc(OC)c1O [Teniposide] |  | 0.3807 | 0.1883 | −0.19 |  |  |  |  | Difference [2, 16]: −0.09; Cholesterol-free [2, 17]: 0.1831; Complete [2, 18]: 0.09739
12 | N[C@@H](CO)C(=O)O [L-Serine] |  | 1.125 | 0.9461 |  |  | 0.9649 |  |  | Difference [1, 25]: −0.18; Cholesterol-free [2, 13]: 1.3; Difference ([2]; complete vs cholesterol-free media, […]): −0.33
13 | CN1CCC(=C2c3ccccc3C=Cc3ccccc32)CC1 [Cyproheptadine (hydrochloride sesquihydrate)] | 0.11 |  |  |  |  |  | 0.8413 | 1.399 | Cholesterol-free media + simvastatin (0.04 μM) [1, 3]: 1.087; Complete Media [1, 4]: 1.192; Difference [2, 24]: 0.56
14 | C[C@@H](Oc1cc(-c2cnn(C3CCNCC3)c2)cnc1N)c1c(Cl)ccc(F)c1Cl [Crizotinib] | 0.12 |  |  |  |  |  | 0.1411 | 0.3735 | Cholesterol-free media + simvastatin (0.04 μM) [1, 3]: 0.4044; Complete Media [1, 4]: 0.5269; Difference [2, 24]: 0.23
15 | CNC[C@H](O)[C@@H](O)[C@H](O)[C@H](O)CO.Nc1nc(-n2cc(C(=O)O)c(=O)c3cc(F)c(N4CC(O)C4)c(Cl)c32)c(F)cc1F [Delafloxacin (meglumine)] |  | 1.156 | 0.9953 | −0.16 |  | 1.009 |  |  | Cholesterol-free [2, 13]: 1.432; Difference [2, 20]: −0.42
16 | NC(=O)c1nc(F)c[nH]c1=O [Favipiravir] |  | 1.347 | 1.105 | −0.24 | −0.06 |  | 1.059 | 0.9966 | 
17 | O=C(O)Cc1cc(I)c(Oc2ccc(O)c(I)c2)c(I)c1 [Tiratricol] | 0.43 |  |  |  |  |  |  |  | Cholesterol-free media + simvastatin (0.04 μM) [1, 19]: 0.7173; Difference [2, 6]: −0.55; Cholesterol-free [2, 7]: 1.869; Complete [2, 8]: 1.318
18 | OCc1cc(C(O)CNCCCCCCOCCCCc2ccccc2)ccc1O (stereo not shown) [Salmeterol (xinafoate)] | 0.25 |  |  |  |  | 1.368 |  |  | Cholesterol-free media + simvastatin (0.04 μM) [1, 19]: 0.9341; Complete Media [1, 18]: 1.186; Cholesterol-free [2, 13]: 1.696; Difference [2, 20]: −0.33
19 | Alimemazine hemitartrate | 0.34 |  |  |  | 0.05 |  | 1.186 | 1.239 | Cholesterol-free media + simvastatin (0.04 μM) [1, 19]: 0.9971; Complete Media [1, 18]: 1.335
20 | CCNC(=O)[C@@H]1CCCN1C(=O)[C@H](CCCNC(=N)N)NC(=O)[C@H](CC(C)C)NC(=O)CNC(=O)[C@H](Cc1ccc(O)cc1)NC(=O)[C@H](CO)NC(=O)[C@H](Cc1c[nH]c2ccccc12)NC(=O)[C@H](Cc1c[nH]cn1)NC(=O)[C@@H]1CCC(=O)N1 [Fertirelin] (HELM PEPTIDE1{[Glp].H.W.S.Y.G.L.R.P.[CCN[*:1]]}$$$$V2.0) |  | 1.367 | 1.138 |  |  |  |  |  | Difference [1, 25]: −0.23; Difference ([2]; Complete minus Cholesterol-free, […]): −0.12; Cholesterol-free [2, 17]: 0.9867; Complete [2, 18]: 0.8642
21 | N[C@@H](Cc1c[nH]c2ccc(O)cc12)C(=O)O [5-Hydroxytryptophan] |  | 1.063 | 0.8252 | −0.24 |  | 0.856 |  |  | Cholesterol-free [2, 13]: 1.189; Difference [2, 20]: −0.33
22 | Bazedoxifene (acetate) | 0.40 |  |  |  | −0.29 | 0.8636 |  |  | Cholesterol-free media + simvastatin (0.04 μM) [1, 19]: 0.4477; Complete Media [1, 18]: 0.8485
23 | CN(C)CCCN1c2ccccc2Sc2ccc(C(F)(F)F)cc21 [Triflupromazine (hydrochloride)] |  |  |  |  |  |  |  |  | Cholesterol-free media + simvastatin (0.04 μM) [1]: 0.02542; Complete Media [1]: 1.475; Difference [1]: 1.45; Cholesterol-free [2]: 0.9938; Complete [2]: 0.8066; Difference [2]: −0.19
24 | O=C1CCC(N2C(=O)c3ccccc3C2=O)C(=O)N1 (stereo not shown) [Thalidomide] |  | 1.184 | 1.013 | −0.17 |  |  |  |  | Difference [2, 6]: −0.92; Cholesterol-free [2, 7]: 1.865; Complete [2, 8]: 0.9496
25 | CCCC(CCC)C(=O)O [Valproic acid] |  | 1.017 | 0.7948 | −0.22 | −0.29 | 0.6641 |  |  | Cholesterol-free [2, 13]: 0.957
26 | Clc1ccc2nsnc2c1NC1=NCCN1 [Tizanidine (hydrochloride)] |  | 1.174 | 0.9856 | −0.19 | 0.02 |  | 1.07 | 1.09 | 
27 | COc1cc2nc(N3CCN(C(=O)C4CCCO4)CC3)nc(N)c2cc1OC (stereo not shown) [Terazosin (hydrochloride dihydrate)] |  |  |  |  | −0.06 |  | 0.8804 | 0.821 | Cholesterol-free media + simvastatin (0.04 μM) [1, 21]: 1.029; Complete Media [1, 22]: 0.9806; Difference [1, 23]: −0.05
28 | CCCN[C@H]1CCc2nc(N)sc2C1 [Pramipexole (dihydrochloride)] |  |  |  |  |  |  |  |  | Cholesterol-free media + simvastatin (0.04 μM) [1, 21]: 0.885; Complete Media [1, 22]: 0.866; Difference [1, 23]: −0.02; Difference [2, 6]: −0.49; Cholesterol-free [2, 7]: 1.504; Complete [2, 8]: 1.014

Reference: patent US20250144067A1, “PERSONALIZED STARVATION THERAPY FOR CANCER” (Faeth Therapeutics, Inc., priority 2021, published 2025)
